# Test system: Pimephales promelas
# Experiment: 96 h LC50 (-log10 mol/L); higher = more toxic
row,Structure (SMILES),96 h LC50 (-log10 mol/L)
1,O=P(O)(O)CCCl,3.05
2,CNC(=O)ON=C(C)SC,4.89
3,ClC(Cl)=C(Cl)Cl,3.96
4,c1ccc2c(c1)-c1cccc3cccc-2c13,6.77
5,NC(=O)c1c(Cl)cccc1Cl,2.61
6,CC(Cl)CCl (stereo not given),2.93
7,c1ccc(Oc2ccccc2)cc1,4.63
8,CC(Cl)(Cl)Cl,3.4
9,CCC(O)C(C)CO (stereo not given),1.13
10,C1CO1,2.72
11,CCOP(=O)(OCC)Oc1ccc([N+](=O)[O-])cc1,5.98
12,CCN(CC)C(=O)c1cccc(C)c1,3.24
13,ClCC(Cl)Cl,3.21
14,CCc1ccccc1,3.95
15,CCNc1nc(Cl)nc(NC(C)C)n1,4.16
16,CNC(=O)O/N=C/C(C)(C)SC,5.17
17,COP(=S)(OC)Oc1ccc([N+](=O)[O-])c(C)c1,4.81
18,ClC(Cl)C(Cl)Cl,3.92
19,CCOP(=S)(OCC)SCSCC,6.02
20,C1CCCCC1,3.3
21,COP(=S)(OC)Oc1ccc(SC)c(C)c1,4.94
22,OCCOCCOCCO,0.309
23,O=C(Nc1ccc(Cl)cc1)Nc1ccc(Cl)c(Cl)c1,6.54
24,Clc1ccc(C(c2ccc(Cl)cc2)C(Cl)(Cl)Cl)cc1,7.27
25,CCOP(=S)(OCC)Oc1ccc([N+](=O)[O-])cc1,5.32

row,Structure (SMILES),96 h LC50 (-log10 mol/L)
1,C=CC#N,3.57
2,CCOCC,1.46
3,CCOP(=S)(OCC)Oc1cc(C)nc(C(C)C)n1,4.81
4,ClC1=C(Cl)[C@]2(Cl)[C@@H]3[C@@H]4C[C@@H]([C@H]5O[C@@H]45)[C@@H]3[C@@]1(Cl)C2(Cl)Cl,7.21
5,CCNCC,1.93
6,c1cc2c3c(cccc3c1)CC2,4.98
7,Oc1c(Cl)cc(Cl)c(Cl)c1Cl,5.35
8,COP(=O)(OC)C(O)C(Cl)(Cl)Cl (stereo not given),3.37
9,Clc1cccc(-c2ccccc2)c1,4.38
10,CC(C)CO,1.7
11,ClCCl,2.42
12,CCCCCCCCn1sccc1=O,6.18
13,C1=CC2C3C=CC(C3)C2C1 (stereo not given),3.41
14,Cc1ccccc1C,3.81
15,CCCN(CCC)c1c([N+](=O)[O-])cc(C(F)(F)F)cc1[N+](=O)[O-],6.5
16,CC=O,3.08
17,ClC=C(Cl)Cl,3.47
18,C=C(C)[C@H]1Cc2c(ccc3c2O[C@@H]2COc4cc(OC)c(OC)cc4[C@@H]2C3=O)O1,7.82
19,ClC(Cl)C(Cl)(Cl)Cl,4.43
20,ClC(Cl)(Cl)C(Cl)(Cl)Cl,5.24
21,CCCCOC(=O)c1ccccc1C(=O)OCCCC,5.37
22,CCOP(=S)(OCC)SCSC(C)(C)C,6.81
23,CCN(CC)c1nc(C)cc(OP(=S)(OC)OC)n1,5.09
24,ClCC(Cl)CCl,3.41
25,CC(N)=S,2.44

row,Structure (SMILES),96 h LC50 (-log10 mol/L)
1,CC1(C)C(C=C(Cl)Cl)C1C(=O)OC(C#N)c1ccc(F)c(Oc2ccccc2)c1 (stereo not given),8.6
2,CC(C)[C@H](C(=O)O[C@H](C#N)c1cccc(Oc2ccccc2)c1)c1ccc(Cl)cc1,9.26
3,CCCN(CCC)c1c([N+](=O)[O-])cc(C(C)C)cc1[N+](=O)[O-],5.85
4,S=c1[nH]c2ccccc2s1,4.18
5,COP(=S)(OC)SCN1C(=O)c2ccccc2C1=O,4.59
6,Nc1c(Cl)c(Cl)nc(C(=O)O)c1Cl,3.64
7,Oc1ccc2ccccc2c1,4.62
8,CC(C)(c1ccc(O)cc1)c1ccc(O)cc1,4.69
9,O=C1C2(Cl)C3(Cl)C4(Cl)C(Cl)(Cl)C5(Cl)C3(Cl)C1(Cl)C5(Cl)C24Cl (stereo not given),6.11
10,c1ccc(C2CO2)cc1 (stereo not given),4
11,Clc1ccccc1-c1ccccc1,4.67
12,CCC1(c2ccccc2)C(=O)NC(=O)NC1=O,2.68
13,CCCCOC(=O)c1ccccc1C(=O)OCc1ccccc1,5.22
14,Cc1ccc([N+](=O)[O-])cc1,3.44
15,O=C(O)CNCP(=O)(O)O,4.57
16,CC(=O)CC(C)=O,2.85
17,CCOC(=O)CC(SP(=S)(OC)OC)C(=O)OCC (stereo not given),4.42
18,CCCCC(CC)COC(=O)c1ccccc1C(=O)OCC(CC)CCCC (stereo not given),2.55
19,O=[N+]([O-])OCC(CO[N+](=O)[O-])O[N+](=O)[O-],4.92
20,COP(=S)(OC)Oc1ccc([N+](=O)[O-])cc1,4.51
21,O=C(O)COc1ccc(Cl)cc1Cl,2.92
22,OCCO,0.037
23,CC1(C)[C@H](C=C2CCCC2)[C@H]1C(=O)OCc1coc(Cc2ccccc2)c1,8.57
24,ClC1=C(Cl)[C@]2(Cl)[C@H]3[C@H]([C@H](Cl)[C@]4(Cl)O[C@H]34)[C@@]1(Cl)C2(Cl)Cl,8.1
25,Clc1ccc(Cl)c(-c2ccccc2Cl)c1,6.88

# Test system: Daphnia magna
# Experiment: 48 h LC50 (-log10 mol/L); higher = more toxic
row,Structure (SMILES),48 h LC50 (-log10 mol/L)
1,O=P(O)(O)CCCl,3.04
2,CNC(=O)ON=C(C)SC,6.96
3,ClC(Cl)=C(Cl)Cl,4
4,c1ccc2c(c1)-c1cccc3cccc-2c13,6.28
5,NC(=O)c1c(Cl)cccc1Cl,2.35
6,CC(Cl)CCl (stereo not given),3.34
7,c1ccc(Oc2ccccc2)cc1,5.43
8,CC(Cl)(Cl)Cl,3.72
9,CCC(O)C(C)CO (stereo not given),1.22
10,C1CO1,2.33
11,CCOP(=O)(OCC)Oc1ccc([N+](=O)[O-])cc1,9.14
12,CCN(CC)C(=O)c1cccc(C)c1,3.08
13,ClCC(Cl)Cl,3.49
14,CCc1ccccc1,4.5
15,CCNc1nc(Cl)nc(NC(C)C)n1,3.6
16,CNC(=O)O/N=C/C(C)(C)SC,5.55
17,COP(=S)(OC)Oc1ccc([N+](=O)[O-])c(C)c1,7.67
18,ClC(Cl)C(Cl)Cl,3.46
19,CCOP(=S)(OCC)SCSCC,7.13
20,C1CCCCC1,4.34
21,COP(=S)(OC)Oc1ccc(SC)c(C)c1,6.79
22,OCCOCCOCCO,0.46
23,O=C(Nc1ccc(Cl)cc1)Nc1ccc(Cl)c(Cl)c1,7.48
24,Clc1ccc(C(c2ccc(Cl)cc2)C(Cl)(Cl)Cl)cc1,8.27
25,CCOP(=S)(OCC)Oc1ccc([N+](=O)[O-])cc1,8.15

row,Structure (SMILES),48 h LC50 (-log10 mol/L)
1,C=CC#N,3.78
2,CCOCC,1.73
3,CCOP(=S)(OCC)Oc1cc(C)nc(C(C)C)n1,8.56
4,ClC1=C(Cl)[C@]2(Cl)[C@@H]3[C@@H]4C[C@@H]([C@H]5O[C@@H]45)[C@@H]3[C@@]1(Cl)C2(Cl)Cl,6.51
5,CCNCC,3.12
6,c1cc2c3c(cccc3c1)CC2,3.58
7,Oc1c(Cl)cc(Cl)c(Cl)c1Cl,6.11
8,COP(=O)(OC)C(O)C(Cl)(Cl)Cl (stereo not given),7.7
9,Clc1cccc(-c2ccccc2)c1,5.64
10,CC(C)CO,1.82
11,ClCCl,2.66
12,CCCCCCCCn1sccc1=O,6.07
13,C1=CC2C3C=CC(C3)C2C1 (stereo not given),4.1
14,Cc1ccccc1C,3.79
15,CCCN(CCC)c1c([N+](=O)[O-])cc(C(F)(F)F)cc1[N+](=O)[O-],6.24
16,CC=O,0.55
17,ClC=C(Cl)Cl,3.48
18,C=C(C)[C@H]1Cc2c(ccc3c2O[C@@H]2COc4cc(OC)c(OC)cc4[C@@H]2C3=O)O1,8.03
19,ClC(Cl)C(Cl)(Cl)Cl,4.19
20,ClC(Cl)(Cl)C(Cl)(Cl)Cl,4.93
21,CCCCOC(=O)c1ccccc1C(=O)OCCCC,4.88
22,CCOP(=S)(OCC)SCSC(C)(C)C,8.21
23,CCN(CC)c1nc(C)cc(OP(=S)(OC)OC)n1,9.14
24,ClCC(Cl)CCl,3.65
25,CC(N)=S,3.64

row,Structure (SMILES),48 h LC50 (-log10 mol/L)
1,CC1(C)C(C=C(Cl)Cl)C1C(=O)OC(C#N)c1ccc(F)c(Oc2ccccc2)c1 (stereo not given),9.13
2,CC(C)[C@H](C(=O)O[C@H](C#N)c1cccc(Oc2ccccc2)c1)c1ccc(Cl)cc1,8.58
3,CCCN(CCC)c1c([N+](=O)[O-])cc(C(C)C)cc1[N+](=O)[O-],7.01
4,S=c1[nH]c2ccccc2s1,4.49
5,COP(=S)(OC)SCN1C(=O)c2ccccc2C1=O,5.6
6,Nc1c(Cl)c(Cl)nc(C(=O)O)c1Cl,3.64
7,Oc1ccc2ccccc2c1,4.61
8,CC(C)(c1ccc(O)cc1)c1ccc(O)cc1,4.3
9,O=C1C2(Cl)C3(Cl)C4(Cl)C(Cl)(Cl)C5(Cl)C3(Cl)C1(Cl)C5(Cl)C24Cl (stereo not given),6.39
10,c1ccc(C2CO2)cc1 (stereo not given),4.02
11,Clc1ccccc1-c1ccccc1,5.42
12,CCC1(c2ccccc2)C(=O)NC(=O)NC1=O,2.2
13,CCCCOC(=O)c1ccccc1C(=O)OCc1ccccc1,5.19
14,Cc1ccc([N+](=O)[O-])cc1,4.01
15,O=C(O)CNCP(=O)(O)O,3.91
16,CC(=O)CC(C)=O,3.32
17,CCOC(=O)CC(SP(=S)(OC)OC)C(=O)OCC (stereo not given),8.35
18,CCCCC(CC)COC(=O)c1ccccc1C(=O)OCC(CC)CCCC (stereo not given),4.55
19,O=[N+]([O-])OCC(CO[N+](=O)[O-])O[N+](=O)[O-],3.85
20,COP(=S)(OC)Oc1ccc([N+](=O)[O-])cc1,7.34
21,O=C(O)COc1ccc(Cl)cc1Cl,3.78
22,OCCO,0.122
23,CC1(C)[C@H](C=C2CCCC2)[C@H]1C(=O)OCc1coc(Cc2ccccc2)c1,8.16
24,ClC1=C(Cl)[C@]2(Cl)[C@H]3[C@H]([C@H](Cl)[C@]4(Cl)O[C@H]34)[C@@]1(Cl)C2(Cl)Cl,5.51
25,Clc1ccc(Cl)c(-c2ccccc2Cl)c1,6.67
